The values that follow come from patent US8084470B2, “Substituted nicotinamide compounds and uses thereof” (Gruenenthal GmbH, priority 2007, dated 2011).

This assay has as its target hKCNQ2/3 (Homo sapiens, UniProt O43525+O43526). Description: Fluorescence assay using a voltage sensitive dye. Format: cell-based. Details: expressed in transfected cells; host or cells: CHO-K1. The method, then: Biological Data Fluorescence Assay Using a Voltage Sensitive Dye
Human CHO-K1 cells expressing KCNQ2/3 channels are cultivated adherently at 37° C., 5% CO2 and 95% humidity in cell culture bottles (e.g. 80 cm^2 TC flasks, Nunc) with DMEM-high glucose (Sigma Aldrich, D7777) including 10% FCS (PAN Biotech, e.g. 3302-P270521) or alternatively with MEM Alpha Medium (1×, liquid, Invitrogen, #22571), 10% fetal calf serum (FCS) (Invitrogen, #10270-106, heat-inactivated) and the necessary selection antibiotics.
Before being distributed for the measurements, the cells are washed with a 1×DPBS buffer without Ca^2+/Mg^2+ (e.g. Invitrogen, #14190-094) and detached from the bottom of the culture vessel by means of Accutase (PAA Laboratories, #L11-007) (incubation with Accutase for 15 min at 37° C.). The cell count then present is determined using a CASY™ cell counter (TCC model, Schärfe System) in order subsequently to apply, according to density optimization for the individual cell line, 20,000-30,000 cells/well/100 μl of the described nutrient medium to 96-well measuring plates of the Corning™ CellBIND™ type (Flat Clear Bottom Black Polystyrene Microplates, #3340). Incubation is then carried out for one hour at room temperature, without gassing or adjusting the humidity, followed by incubation for 24 hours at 37° C., 5% CO2 and 95% humidity.
The voltage-sensitive fluorescent dye from the Membrane Potential Assay Kit (Red™ Bulk format part R8123 for FLIPR, MDS Analytical Technologies™) is prepared by dissolving the contents of a vessel Membrane Potential Assay Kit Red Component A in 200 ml of extracellular buffer (ES buffer, 120 mM NaCl, 1 mM KCl, 10 mM HEPES, 2 mM CaCl2, 2 mM MgCl2, 10 mM glucose; pH 7.4). After removal of the nutrient medium, the cells are washed with 200 μl of ES buffer, then covered with a layer of 100 μl of the dye solution prepared above and incubated for 45 min at room temperature with the exclusion of light.
The fluorescence measurements are carried out with a BMG Labtech FLUOstar™ or BMG Labtech NOVOstar™ or BMG Labtech POLARstar™ instrument (525 nm excitation, 560 nm emission, Bottom Read mode). After incubation of the dye, 50 μl of the test substances in the desired concentrations, or 50 μl of ES buffer for control purposes, are introduced into separate cavities of the measuring plate and incubated for 30 min at room temperature while being shielded from light. The fluorescence intensity of the dye is then measured for 5 min and the fluorescence value F1 of each well is thus determined at a given, constant time. 15 μL of a 100 mM KCl solution ([…]) are then added to each well. The change in fluorescence is subsequently measured until all the relevant measured values have been obtained (mainly 5-30 min). At a given time after KCl application, a fluorescence value F2 is determined, in this case at the time of the fluorescence peak.
For calculation, the fluorescence intensity F2 is compared with the fluorescence intensity F1, and the agonistic activity of the target compound on the potassium channel is determined therefrom. F2 and F1 are calculated as follows:
[formula] In order to determine whether a substance has an agonistic activity,
[formula] for example, can be compared with
[formula] of control cells.
[formula] is determined by adding to the reaction batch only the buffer solution instead of the substance to be tested, determining the value F1K of the fluorescence intensity, adding the potassium ions as described above and measuring a value F2K of the fluorescence intensity. Then F2K and F1K are calculated as follows:
[formula] A substance has an agonistic activity on the potassium channel when
[formula] is greater than
[formula] Independently of the comparison of
[formula] it is also possible to conclude that a target compound has agonistic activity if an increase in
[formula] is to be observed as the dosage of the target compound increases. […]
One may read the EC50 as the concentration that produces a half-maximal response. High values mean lower potency in that assay, low ones higher potency in that assay. With `O=C(NCc1cccs1)c1cccnc1SCCSc1ccccc1` [Example 109, 2-[2-(phenylthio)ethylthio]-N-(2-thienylmethyl)-nicotinamide], the EC50 worked out at 75 nM.
The result for `O=C(NCc1ccc(F)cc1)c1cccnc1SCCS(=O)(=O)c1ccccc1` [Example 20, N-(4-fluorobenzyl)-2-(2-(phenylsulfonyl)ethylthio)nicotinamide] reads 1280 nM; that for `Cc1ccc(S(=O)(=O)CCSc2ncccc2C(=O)NCc2ccccc2F)cc1` [Example 43, N-(2-fluorobenzyl)-2-(2-tosylethylthio)nicotinamide], 1970 nM.
The result for `COc1ccc(CNC(=O)c2cccnc2SCCS(=O)(=O)c2ccccc2)cc1` [Example 17, N-(4-methoxybenzyl)-2-(2-(phenylsulfonyl)ethylthio)nicotinamide] reads 6520 nM.
The compound `O=C(NCc1cc(F)cc(F)c1)c1cccnc1SCCS(=O)(=O)c1ccccc1` [Example 8, N-(3,5-difluorobenzyl)-2-(2-(phenylsulfonyl)ethylthio)nicotinamide] gave an EC50 of 1280 nM.
For `O=C(NCc1cccc(Cl)c1)c1cccnc1SCCS(=O)(=O)c1ccccc1` [Example 25, N-(3-chlorobenzyl)-2-(2-(phenylsulfonyl)ethylthio)nicotinamide], the EC50 stood at 1280 nM.
Compound `O=C(NCc1cccc(F)c1)c1cccnc1SCCS(=O)(=O)c1ccccc1` [Example 15, N-(3-fluorobenzyl)-2-(2-(phenylsulfonyl)ethylthio)nicotinamide] had an EC50 of 2480 nM.
Consider `O=C(NCc1ccc(F)c(F)c1)c1cccnc1SCCS(=O)(=O)c1ccccc1` [Example 12, N-(3,4-difluorobenzyl)-2-(2-(phenylsulfonyl)ethylthio)nicotinamide], for which the midpoint of the response, the EC50, lay at 1800 nM.
With `Cc1ccc(S(=O)(=O)CCSc2ncccc2C(=O)NCc2ccc(F)c(F)c2)cc1` [Example 45, N-(3,4-difluorobenzyl)-2-(2-tosylethylthio)nicotinamide], a half-maximal effect (EC50) was put at 2140 nM.
The result for `O=C(NCc1cccs1)c1cccnc1SCCS(=O)(=O)c1ccc(F)cc1` [Example 100, 2-[2-(4-fluorophenyl)sulfonylethylthio]-N-(2-thienylmethyl)-nicotinamide] reads 503 nM.
The result for `CC(C)(C)CNC(=O)c1cccnc1SCCS(=O)(=O)c1ccccc1` [Example 60, N-(neopentyl)-2-(2-(phenylsulfonyl)ethylthio)nicotinamide] reads 9590 nM; that for `O=C(NCc1ccccc1F)c1cccnc1SCCS(=O)(=O)c1ccccc1` [Example 11, N-(2-fluorobenzyl)-2-(2-(phenylsulfonyl)ethylthio)nicotinamide], 1170 nM; that for `Cc1ccc(CNC(=O)c2cccnc2SCCS(=O)(=O)c2ccccc2)cc1` [Example 5, N-(4-methylbenzyl)-2-(2-(phenylsulfonyl)ethylthio)-nicotinamide], 1860 nM.
The result for `Cc1ccc(S(=O)(=O)CCSc2ncccc2C(=O)NCc2ccc(F)cc2)cc1` [Example 49, N-(4-fluorobenzyl)-2-(2-tosylethylthio)nicotinamide] reads 7600 nM; that for `CC(NC(=O)c1cccnc1SCCS(=O)(=O)c1ccccc1)c1cccc(C(F)(F)F)c1` (centres unmarked) [Example 57, 2-(2-(phenylsulfonyl)ethylthio)-N-(1-(3-(trifluoromethyl)phenyl)ethyl)-nicotinamide], 5700 nM.
In the case of `Cc1ccc(S(=O)(=O)CCSc2ncccc2C(=O)NCc2cccs2)cc1` [Example 36, N-(thiophen-2-ylmethyl)-2-(2-tosylethylthio)nicotinamide], the response was half-maximal at 4110 nM (EC50).
The result for `O=C(NCc1ccc(Cl)c(Cl)c1)c1cccnc1SCCS(=O)(=O)c1ccccc1` [Example 19, N-(3,4-dichlorobenzyl)-2-(2-(phenylsulfonyl)ethylthio)nicotinamide] reads 1270 nM.
The result for `Cc1cccc(SCCSc2ncccc2C(=O)NCc2cccs2)c1` [Example 105, 2-[2-(m-tolylthio)ethylthio]-N-(2-thienylmethyl)-nicotinamide] reads 168 nM; that for `O=C(NCc1cccs1)c1cccnc1SCCS(=O)(=O)c1ccc(C(F)(F)F)cc1` [Example 102, N-(2-thienylmethyl)-2-[2-[4-(trifluoromethyl)phenyl]sulfonylethylthio]-nicotinamide], 197 nM.
The result for `O=C(NCc1ccccc1)c1cccnc1SCCS(=O)(=O)c1ccccc1` [Example 54, N-benzyl-2-(2-(phenylsulfonyl)ethylthio)nicotinamide] reads 2340 nM.
For the compound `Cc1ccc(S(=O)(=O)CCSc2ncccc2C(=O)NCc2cccc(C(F)(F)F)c2)cc1` [Example 52, 2-(2-tosylethylthio)-N-(3-(trifluoromethyl)benzyl)nicotinamide], the response was half-maximal at 1820 nM (EC50).
The result for `CN(Cc1cccc(Br)c1)C(=O)c1cccnc1SCCS(=O)(=O)c1ccccc1` [Example 13, N-(3-bromobenzyl)-N-methyl-2-(2-(phenylsulfonyl)ethylthio)nicotinamide] reads 1400 nM.
The result for `Cc1ccc(S(=O)(=O)CCSc2ncccc2C(=O)NCc2cc(F)cc(F)c2)cc1` [Example 41, N-(3,5-difluorobenzyl)-2-(2-tosylethylthio)nicotinamide] reads 2390 nM.
The result for `O=C(NCc1ccco1)c1cccnc1SCCS(=O)(=O)c1ccccc1` [Example 62, N-(furan-2-ylmethyl)-2-(2-(phenylsulfonyl)ethylthio)nicotinamide] reads 4390 nM; that for `Cc1ccc(S(=O)(=O)CCSc2ncccc2C(=O)NCc2cccc(Cl)c2)cc1` [Example 51, N-(3-chlorobenzyl)-2-(2-tosylethylthio)nicotinamide], 4120 nM; that for `O=C(NCc1ccc(SC(F)(F)F)cc1)c1cccnc1SCCS(=O)(=O)c1ccccc1` [Example 64, 2-(2-(phenylsulfonyl)ethylthio)-N-(4-(trifluoromethylthio)benzyl)-nicotinamide], 880 nM.
`Cc1ccc(S(=O)(=O)CCSc2ncccc2C(=O)NCc2cccc(C)c2)cc1` [Example 44, N-(3-methylbenzyl)-2-(2-tosylethylthio)nicotinamide] came in with an EC50 of 2230 nM.
The result for `CN(Cc1ccccc1)C(=O)c1cccnc1SCCS(=O)(=O)c1ccccc1` [Example 55, N-benzyl-N-methyl-2-(2-(phenylsulfonyl)ethylthio)nicotinamide] reads 16500 nM; that for `O=C(NCc1cccs1)c1cccnc1SCCS(=O)(=O)c1cccc(F)c1` [Example 106, 2-[2-(3-fluorophenyl)sulfonylethylthio]-N-(2-thienylmethyl)-nicotinamide], 187 nM.
The result for `CC(C)(C)CCNC(=O)c1cccnc1SCCS(=O)(=O)c1ccccc1` [Example 107, 2-[2-(benzenesulfonyl)ethylthio]-N-(3,3-dimethylbutyl)-nicotinamide] reads 1420 nM.
The result for `O=C(NCc1cccs1)c1cccnc1SCCS(=O)(=O)c1ccc(Cl)cc1` [Example 99, 2-[2-(4-chlorophenyl)sulfonylethylthio]-N-(2-thienylmethyl)-nicotinamide] reads 234 nM; that for `Cc1ccc(S(=O)(=O)CCSc2ncccc2C(=O)NCc2ccco2)cc1` [Example 39, N-(furan-2-ylmethyl)-2-(2-tosylethylthio)nicotinamide], 6090 nM.
